Measured values as given in publication PMC9788584, “Quinoxalinones as A Novel Inhibitor Scaffold for EGFR (L858R/T790M/C797S) Tyrosine Kinase: Molecular Docking, Biological Evaluations, and Computational Insights” (Molecules, 2022).
Read-outs that look alike come from different tables or passages of the source.

How the values were obtained:
[1] = target: EGFR (L858R/T790M/C797S) TK (Homo sapiens, UniProt P00533, C797S/L858R/T790M); test: ADP-Glo kinase assay, EGFR tyrosine kinase inhibition; format: biochemical
Procedure: The inhibitory activity of each candidate compound towards EGFR triple mutations was performed using the luminescent ADP-Glo™ kinase assay (Promega Corporation, Madison, WI, USA) as previously described. […] Subsequently, 10 μL of kinase detection reagent was added and incubated at room temperature for 30 min to convert ADP into ATP. The generated luminescence by ATP in a luciferase reaction was then measured using a microplate reader (Infinite M200 microplate reader, Tecan, Männedorf, Switzerland), which corresponds to kinase activity. All assays were performed in triplicate and the obtained data were represented as the relative inhibition (%) of inhibitors compared to the control with no inhibitor as shown in Equation (1); (1) % relative inhibition=positive−negative−sample−negative/positive−negative×100

[2] = system: H1975 lung cancer cells expressing L858R/T790M EGFR; test: MTT cytotoxicity assay on H1975 cells; format: cell-based, Human; conditions: read-out: IC50, cytotoxic effect on H1975 cell viability
Procedure: Both cells were maintained to grow at 37 °C in a humidified 5% CO2 atmosphere.
The studied cell lines were seeded into 96-well plates (cell density of 6000 cells/well) and were incubated overnight. […] After incubation, the effect of compounds on cell viability was measured using the MTT assay as follows: 10 μL of MTT solution (5 mg/mL) was added and then incubated for 3 h. The medium was removed, followed by adding 50 μL of DMSO to dissolve the crystal formazan product. The purple solution of crystal formazan was then measured at 570 nm using a microplate spectrophotometer (Infinite M200 microplate reader, Tecan, Männedorf, Switzerland). The complete medium with 1.0% DMSO (no inhibitor) was used as a control in accordance with the reaction containing 1.0% DMSO of all wells.

[3] = MTT cytotoxicity assay on Vero cells; conditions: monkey, Vero cells (normal kidney epithelial cell line), IC50, cytotoxic effect on Vero cell viability
Procedure: (§1) Human NSCLC cell lines, H1975 (ATCC CRL-5908) and monkey’s normal kidney epithelial cell line (Vero, ATCC CCL-81) were purchased from American Type Culture Collection (ATCC, Manassas, VA, USA). H1975 cells were grown in RPMI-1640 medium supplemented with 10% FBS, 100 U/mL penicillin, and 100 µg/mL streptomycin. Vero cells were grown in Dulbecco’s modified Eagle’s minimal essential medium (DMEM; Gibco, Grand Island, NY, USA) containing 10% fetal bovine serum (FBS; Gibco), 100 U/mL penicillin, and 100 µg/mL streptomycin (Gibco). Both cells were maintained to grow at 37 °C in a humidified 5% CO2 atmosphere.
(§2) The studied cell lines were seeded into 96-well plates (cell density of 6000 cells/well) and were incubated overnight. Then, cells were treated with screened compounds and the known drug with various concentrations (125, 62.5, 31.25, 15.63, 7.81, 3.91, 1.95, and 0.98 μM) for 72 h. After incubation, the effect of compounds on cell viability was measured using the MTT assay as follows: 10 μL of MTT solution (5 mg/mL) was added and then incubated for 3 h. The medium was removed, followed by adding 50 μL of DMSO to dissolve the crystal formazan product. The purple solution of crystal formazan was then measured at 570 nm using a microplate spectrophotometer (Infinite M200 microplate reader, Tecan, Männedorf, Switzerland). The complete medium with 1.0% DMSO (no inhibitor) was used as a control in accordance with the reaction containing 1.0% DMSO of all wells.

Vero normal kidney cells = test: MTT cytotoxicity assay on Vero cells; conditions: read-out: IC50, cytotoxic effect on Vero cell viability, 72 h
Procedure: as §1, §2

in vitro = conditions: monkey, IC50, cytotoxic effect on Vero cell viability
Procedure: as §1, §2

[4] = enzyme-based assay, mean ± SEM, triplicate, read-out: IC50, kinase inhibitory activity against EGFR (L858R/T790M/C797S)
[5] = Homo sapiens, NCI-H1975, MTT, 72 h

EGFR (L858R/T790M/C797S) TK, sequence (P00533 25-1210 T790M/C797S/L858R): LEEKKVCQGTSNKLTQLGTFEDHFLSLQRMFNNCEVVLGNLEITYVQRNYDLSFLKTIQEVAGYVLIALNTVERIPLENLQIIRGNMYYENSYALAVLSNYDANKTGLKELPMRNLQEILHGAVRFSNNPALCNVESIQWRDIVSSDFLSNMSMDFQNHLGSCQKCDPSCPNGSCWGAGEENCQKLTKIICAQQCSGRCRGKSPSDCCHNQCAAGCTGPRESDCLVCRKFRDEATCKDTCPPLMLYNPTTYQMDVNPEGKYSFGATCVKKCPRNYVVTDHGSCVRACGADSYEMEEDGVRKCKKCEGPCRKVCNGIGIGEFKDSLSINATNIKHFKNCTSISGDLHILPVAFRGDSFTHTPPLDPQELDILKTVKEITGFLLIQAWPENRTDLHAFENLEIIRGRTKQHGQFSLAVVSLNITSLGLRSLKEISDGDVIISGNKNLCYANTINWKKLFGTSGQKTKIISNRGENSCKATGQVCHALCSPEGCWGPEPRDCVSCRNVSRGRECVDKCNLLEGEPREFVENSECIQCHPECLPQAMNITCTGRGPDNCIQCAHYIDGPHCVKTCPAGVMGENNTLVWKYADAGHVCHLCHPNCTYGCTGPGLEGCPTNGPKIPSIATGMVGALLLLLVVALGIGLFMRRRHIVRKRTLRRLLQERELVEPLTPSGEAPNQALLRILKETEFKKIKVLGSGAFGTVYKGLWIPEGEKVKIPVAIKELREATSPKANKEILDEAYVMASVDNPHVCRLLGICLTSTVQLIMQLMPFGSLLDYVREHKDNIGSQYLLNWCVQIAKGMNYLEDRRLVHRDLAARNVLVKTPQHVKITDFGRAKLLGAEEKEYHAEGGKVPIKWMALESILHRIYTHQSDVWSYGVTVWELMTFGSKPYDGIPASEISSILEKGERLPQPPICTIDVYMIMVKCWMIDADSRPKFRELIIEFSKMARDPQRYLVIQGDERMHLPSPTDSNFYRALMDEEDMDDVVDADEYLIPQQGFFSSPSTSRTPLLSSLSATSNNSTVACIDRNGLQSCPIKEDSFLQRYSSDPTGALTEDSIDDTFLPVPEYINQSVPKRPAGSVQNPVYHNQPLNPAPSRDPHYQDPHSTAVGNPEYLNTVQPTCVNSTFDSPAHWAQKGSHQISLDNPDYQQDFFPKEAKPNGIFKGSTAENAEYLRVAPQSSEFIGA

O=c1c(-n2cncn2)nc2ccccc2n1Cc1ccccc1 [CPD4]
IC50 [1, 4]: 0.00304 ± 0.00124 µM | IC50 [2, 5]: 3.47 ± 2.2 µM | IC50 at 72 h [3]: > 20 µM

CCn1c(=O)c(-n2cnc3ccccc32)nc2ccccc21 [CPD15]
IC50 [1]: 0.0065 ± 0.00302 µM | IC50 ([2]; MTT, 72 h): 31.2 ± 3.4 µM | IC50 at 72 h [3]: > 100 µM | IC50 (Vero normal kidney cells): > 50 µM

O=c1[nH]c2ccccc2nc1OCc1ccccc1 [CPD16]
IC50 [1, 4]: 0.0105 ± 0.0011 µM | IC50 [2, 5]: 79.4 ± 4.35 µM | IC50 at 72 h [3]: > 100 µM

CCOc1nc2ccccc2n(Cc2ccccc2)c1=O [CPD21, 1-Benzyl-3-ethoxyquinoxalin-2(1H)-one]
IC50 [1, 4]: 0.00381 ± 0.0018 µM | IC50 [2, 5]: 44.7 ± 2.34 µM | IC50 at 72 h [3]: > 100 µM

C=CC(=O)Nc1cc(Nc2nccc(-c3cn(C)c4ccccc34)n2)c(OC)cc1N(C)CCN(C)C [Osimertinib, reference compound]
IC50 ([2]; Homo sapiens, NCI-H1975, 72 h): 18.3 ± 2.02 µM | IC50 at 72 h (in vitro): > 100 µM
